Experimental data as given in patent US20160318866A1, “SUBSTITUTED BIPIPERIDINYL DERIVATIVES” (Bayer Pharma Aktiengesellschaft, priority 2013, published 2016).
Structures can show the parent of a compound that is named as a salt.

biological target: T1, human α2C receptor (Homo sapiens, UniProt P18825); assay: Antagonism against the adrenoreceptor α2C (luminescence, recombinant CHO cell line); assay type: cell-based; conditions: antagonism against adrenoreceptor α2C; noradrenaline 20 nM; tested up to 10 μM; read-out: IC50
T1 construct: expressed in transfected cells; host or cells: CHO cells, also recombinantly expressing chimeric G protein Gαqi3 and mitochondrial obelin (mtOb)
T1 sequence (P18825 1-462): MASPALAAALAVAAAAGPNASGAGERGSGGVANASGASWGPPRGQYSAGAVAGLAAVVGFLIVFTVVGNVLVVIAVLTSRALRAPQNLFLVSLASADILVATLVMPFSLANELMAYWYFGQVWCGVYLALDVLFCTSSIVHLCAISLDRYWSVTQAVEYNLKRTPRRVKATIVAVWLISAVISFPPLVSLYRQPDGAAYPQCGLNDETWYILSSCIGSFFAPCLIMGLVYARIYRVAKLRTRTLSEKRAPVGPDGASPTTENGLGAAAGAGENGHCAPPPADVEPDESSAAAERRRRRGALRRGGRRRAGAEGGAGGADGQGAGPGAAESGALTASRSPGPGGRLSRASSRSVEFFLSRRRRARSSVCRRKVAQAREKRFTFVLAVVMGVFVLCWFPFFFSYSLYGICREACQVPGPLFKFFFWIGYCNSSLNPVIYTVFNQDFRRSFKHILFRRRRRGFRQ
In short: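 CHO cells expressing human α2C receptor with chimeric Gαqi3 and mitochondrial obelin, loaded with 2.5 μg/ml coelenterazine for one day at 30 °C.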

Structure (SMILES)	IC50
C[C@@H]1CCCN(C2CCN(C(=O)c3ccc(C(=O)N(C)Cc4c(F)cccc4F)cc3)CC2)C1 [Example 84, (R)—N-(2,6-Difluorobenzyl)-N-methyl-4-{[(3R)-3-methyl-1,4′-bipiperidin-1′-yl]carbonyl}benzamide trifluoroacetic acid salt]	3 nM
C[C@@H]1CCCN(C2CCN(C(=O)c3ccc(C(=O)NC(c4ccc(C(F)(F)F)cc4)C(F)(F)F)cc3)CC2)C1 (stereo partly drawn) [Example 85, 4-{[(3R)-3-Methyl-1,4′-bipiperidin-1′-yl]carbonyl}-N-{2,2,2-trifluoro-1-[4-(trifluoromethyl)phenyl]ethyl}benzamide trifluoroacetic acid salt]	200 nM
C[C@@H]1CCCN(C2CCN(C(=O)c3ccc(C(=O)NCc4cccc(OC(F)F)c4)cc3)CC2)C1 [Example 86, (R)—N-[3-(Difluoromethoxy)benzyl]-4-[(3-methyl-1,4′-bipiperidin-1′-yl)carbonyl]benzamide trifluoroacetic acid salt]	180 nM
CC(NC(=O)c1ccc(C(=O)N2CCC(N3CCC[C@@H](C)C3)CC2)cc1)c1c(F)cccc1F (stereo partly drawn) [Example 87, N-[1-(2,6-Difluorophenyl)ethyl]-4-{[(3R)-3-methyl-1,4′-bipiperidin-1′-yl]carbonyl}benzamide trifluoroacetic acid salt]	16 nM
C[C@@H]1CCCN(C2CCN(C(=O)c3ccc(C(=O)NCc4c(F)cccc4F)cc3)CC2)C1 [Example 88, N-(2,6-Difluorobenzyl)-4-{[(3R)-3-methyl-1,4′-bipiperidin-1′-yl]carbonyl}benzamide trifluoroacetic acid salt]	11 nM
C[C@@H]1CCCN(C2CCN(C(=O)c3ccc(C(=O)NC(CCO)c4ccccc4F)cc3)CC2)C1 (stereo partly drawn) [Example 89, N-[1-(2-Fluorophenyl)-3-hydroxypropyl]-4-{[(3R)-3-methyl-1,4′-bipiperidin-1′-yl]carbonyl}benzamide trifluoroacetic acid salt]	17 nM
C[C@@H]1CCCN(C2CCN(C(=O)c3ccc(C(=O)NCc4cc(Cl)ccn4)cc3)CC2)C1 [Example 90, N-[(4-Chloropyridin-2-yl)methyl]-4-{[(3R)-3-methyl-1,4′-bipiperidin-1′-yl]carbonyl}benzamide]	28 nM
C[C@@H]1CCCN(C2CCN(C(=O)c3ccc(C(=O)NCc4ncc(Cl)cc4C(F)(F)F)cc3)CC2)C1 [Example 91, N-{[5-Chloro-3-(trifluoromethyl)pyridin-2-yl]methyl}-4-{[(3R)-3-methyl-1,4′-bipiperidin-1′-yl]carbonyl}benzamide]	13 nM
C[C@@H]1CCCN(C2CCN(C(=O)c3ccc(C(=O)NCc4cc(C(F)(F)F)c(Cl)cn4)cc3)CC2)C1 [Example 92, N-{[5-Chloro-4-(trifluoromethyl)pyridin-2-yl]methyl}-4-{[(3R)-3-methyl-1,4′-bipiperidin-1′-yl]carbonyl}benzamide]	160 nM
CC(NC(=O)c1ccc(C(=O)N2CCC(N3CCC[C@@H](C)C3)CC2)cc1)c1ccncc1 (stereo partly drawn) [Example 93, 4-{[(3R)-3-Methyl-1,4′-bipiperidin-1′-yl]carbonyl}-N-[1-(pyridin-4-yl)ethyl]benzamide]	135 nM
C[C@@H]1CCCN(C2CCN(C(=O)c3ccc(C(=O)NC(CO)c4ccccc4F)cc3)CC2)C1 (stereo partly drawn) [Example 94, N-[1-(2-Fluorophenyl)-2-hydroxyethyl]-4-{[(3R)-3-methyl-1,4′-bipiperidin-1′-yl]carbonyl}benzamide]	25 nM
Cc1ncccc1CNC(=O)c1ccc(C(=O)N2CCC(N3CCC[C@@H](C)C3)CC2)cc1 [Example 95, 4-{[(3R)-3-Methyl-1,4′-bipiperidin-1′-yl]carbonyl}-N-[(2-methylpyridin-3-yl)methyl]benzamide]	47 nM
COCC1CCCN(C2CCN(C(=O)c3ccc(C(=O)N(C)Cc4c(F)cccc4F)cc3)CC2)C1 (stereo not drawn) [Example 96, N-(2,6-Difluorobenzyl)-4-{[3-(methoxymethyl)-1,4′-bipiperidin-1′-yl]carbonyl}-N-methylbenzamide trifluoroacetic acid salt]	10 nM
COCC1CCCN(C2CCN(C(=O)c3ccc(C(=O)NCc4ncc(F)cc4F)cc3)CC2)C1 (stereo not drawn) [Example 97, N-[(3,5-Difluoropyridin-2-yl)methyl]-4-{[3-(methoxymethyl)-1,4′-bipiperidin-1′-yl]carbonyl}benzamide trifluoroacetic acid salt]	10 nM
C[C@@H]1CCCN(C2CCN(C(=O)c3ccc(C(=O)NCc4ncccc4F)cc3)CC2)C1 [Example 98, N-[(3-Fluoropyridin-2-yl)methyl]-4-{[(3R)-3-methyl-1,4′-bipiperidin-1′-yl]carbonyl}benzamide]	27 nM
C[C@@H]1CCCN(C2CCN(C(=O)c3ccc(C(C)(C)O)c(Cl)c3)CC2)C1 [Example 99, [3-Chloro-4-(2-hydroxypropan-2-yl)phenyl][(3R)-3-methyl-1,4′-bipiperidin-1′-yl]methanone]	84 nM
C[C@@H]1CCCN(C2CCN(C(=O)c3ccc(C(=O)NC(C)(C)C)c(Cl)c3)CC2)C1 [Example 100, N-tert-Butyl-2-chloro-4-{[(3R)-3-methyl-1,4′-bipiperidin-1′-yl]carbonyl}benzamide formic acid salt]	27 nM

Structure (SMILES)	IC50
C[C@@H]1CCCN(C2CCN(C(=O)c3ccc(C(=O)NC(C)(C)C)cc3Cl)CC2)C1 [Example 101, N-tert-Butyl-3-chloro-4-{[(3R)-3-methyl-1,4′-bipiperidin-1′-yl]carbonyl}benzamide formic acid salt]	21 nM
CC1CCCN(C2CCN(C(=O)c3ccc(C(=O)NC(C)(C)C)cc3F)CC2)C1 (stereo not drawn) [Example 102, N-tert-Butyl-3-fluoro-4-[(3-methyl-1,4′-bipiperidin-1′-yl)carbonyl]benzamide hydrochloride]	67 nM
CC1CCCN(C2CCN(C(=O)c3ccc(C(=O)NC(C)(C)C)c(F)c3)CC2)C1 (stereo not drawn) [Example 103, N-tert-Butyl-2-fluoro-4-[(3-methyl-1,4′-bipiperidin-1′-yl)carbonyl]benzamide]	73 nM
CC1=C(C)CN(C2CCN(C(=O)c3ccc(C(=O)Nc4c(C)noc4C)cc3)CC2)CC1 [Example 104, 4-{[4-(4,5-Dimethyl-3,6-dihydropyridin-1 (2H)-yl)piperidin-1-yl]carbonyl}-N-(3,5-dimethyl-1,2-oxazol-4-yl)benzamide]	9 nM
COCC1CCCN(C2CCN(C(=O)c3ccc(C(=O)Nc4c(C)noc4C)cc3)CC2)C1 (stereo not drawn) [Example 105, N-(3,5-Dimethyl-1,2-oxazol-4-yl)-4-{[3-(methoxymethyl)-1,4′-bipiperidin-1′-yl]carbonyl}benzamide]	10 nM
CC(C)(C)OCC1CCCN(C2CCN(C(=O)c3ccc(C(C)(C)O)cc3)CC2)C1 (stereo not drawn) [Example 106, [3-(tert-Butoxymethyl)-1,4′-bipiperidin-1′-yl][4-(2-hydroxypropan-2-yl)phenyl]methanone]	35 nM
CC(C)(C)OCC1CCCN(C2CCN(C(=O)c3ccc(C(C)(C)C)cc3)CC2)C1 (stereo not drawn) [Example 107, [3-(tert-Butoxymethyl)-1,4′-bipiperidin-1′-yl](4-tert-butylphenyl)methanone]	90 nM
CC(C)(O)c1ccc(C(=O)N2CCC(N3CCCC(COc4cccc(F)c4)C3)CC2)cc1 (stereo not drawn) [Example 108, {3-[(3-Fluorophenoxy)methyl]-1,4′-bipiperidin-1′-yl}[4-(2-hydroxypropan-2-yl)phenyl]methanone]	112 nM
COCCc1noc(C2CCCN(C3CCN(C(=O)c4ccc(C(C)(C)C)cc4)CC3)C2)n1 (stereo not drawn) [Example 109, (4-tert-Butylphenyl){3[3-(2-methoxyethyl)-1,2,4-oxadiazol-5-yl]-1,4′-bipiperidin-1′-}methanone]	104 nM
CC(C)(O)c1ccc(C(=O)N2CCC(N3CCCC(COC(F)(F)F)C3)CC2)cc1 (stereo not drawn) [Example 110, [4-(2-Hydroxypropan-2-yl)phenyl]{3-[(trifluoromethoxy)methyl]-1,4′-bipiperidin-1′-yl}methanone]	7 nM
CC(C)(O)c1ccc(C(=O)N2CCC(N3CCCC(OCC4CCC4)C3)CC2)cc1 (stereo not drawn) [Example 111, [3-(Cyclobutylmethoxy)-1,4′-bipiperidin-1-yl][4-(2-hydroxypropan-2-yl)phenyl]methanone]	10 nM
CC(C)(O)c1ccc(C(=O)N2CCC(N3CCCC(OC4CC4)C3)CC2)cc1 (stereo not drawn) [Example 112, 3-(Cyclopropyloxy)-1,4′-bipiperidin-1′-yl][4-(2-hydroxypropan-2-yl)phenyl]methanone formic acid salt]	358 nM
C[C@@H]1CCCN(C2CCN(C(=O)c3ccc(C(C)(C)O)c(F)c3)CC2)C1 [Example 113, [3-Fluoro-4-(2-hydroxypropan-2-yl)phenyl][(3R)-3-methyl-1,4′-bipiperidin-1′-yl]methanone]	33 nM
CCC1CCCN(C2CCN(C(=O)c3ccc(C(C)(C)O)cc3)CC2)C1 (stereo not drawn) [Example 114, [3-Ethyl-1,4′-bipiperidin-1′-yl][4-(2-hydroxypropan-2-yl)phenyl]methanone]	72 nM
CC(C)(O)c1ccc(C(=O)N2CCC(N3CCCC(COC4CC4)C3)CC2)cc1 (stereo not drawn) [Example 118, {3-[(Cyclopropyloxy)methyl]-1,4′-bipiperidin-1′-yl}[4-(2-hydroxypropan-2-yl)phenyl]methanone]	8 nM
COC(C)(C)c1ccc(C(=O)N2CCC(N3CCCC(COC(C)(C)C)C3)CC2)cc1 (stereo not drawn) [Example 119, [3-(tert-Butoxymethyl)-1,4′-bipiperidin-1′-yl][4-(2-methoxypropan-2-yl)phenyl]methanone]	16 nM
